Source: patent publication US11891369B2, “Compounds for binding proprotein convertase subtilisin/kexin type 9” (SRX Cardio, LLC, priority 2016, dated 2024)

Key:
PCSK9 [1] = target: T1, PCSK9 (Homo sapiens, UniProt Q8NBP7); test: LDLR flow cytometric analysis (LDL-R assay); assay type: cell-based; conditions: percentage recovery in the LDL-R assay at 20 uM concentration
T1 construct: host or cells: added to HepG2, HuH7, FL83B or shPCSK9 knockdown lines
Excerpt: Cells, such as HepG2, HuH7, FL83B, or a cell line transfected with a short-hairpin PCSK9 knockdown sequence (e.g., HepG2/shPCSK9, HuH7/shPCSK9) can be cultured following routine procedures, such as those described by Benjannet et al., “Effects of the prosegment and pH on the activity of PCSK9: evidence for additional processing events” J Biol Chem. 285(52): 40965-40978 (2010), which is hereby incorporated by reference in its entirety.
LDLR levels can be measured using flow cytometry or fluorescence activated cell sorting (FACS) using protocols adapted from Benjannet et al., “Effects of the prosegment and pH on the activity of PCSK9: evidence for additional processing events” J Biol Chem. 285(52): 40965-40978 (2010) and “Composition and Methods of Use of Small Molecules as Binding Ligands for the Modulation of Proprotein Convertase Subtilisin/Kexin Type 9 (PCSK9) Protein Activity” (WO2016029037), which are incorporated by reference in their entirety.
Cells, such as HepG2, HuH7, FL83B, or a cell line transfected with a short-hairpin PCSK9 knockdown sequence such as HepG2/shPCSK9, HuH7/shPCSK9, or FL83B/shPCSK9 are cultured in media composed of complete, high glucose DMEM (Invitrogen) with 10% fetal bovine serum (Life Technologies), supplemented with penicillin-streptomycin (Life Technologies). Cells are plated in a 24-well plate, at 125 k cells/well, and cultured at 37° C. for 12-24 h. Culture media is removed and replaced with fresh culture media or culture media plus a predetermined amount of recombinant PCSK9 (final 5 ug/ml). Wells evaluating test compounds are dosed with concentrations ranging from 0 nM to 100 uM.
Following an incubation period of 4-6 hours at 37° C., the media is removed and the cells are rinsed by adding 0.5 ml of complete D-PBS (i.e., Dulbecco's phosphate buffered saline (D-PBS, Life Technologies) supplemented with 0.5% bovine serum albumin (BSA, Sigma) and 1 g/L glucose (Sigma)). The wash media is carefully aspirated, and cells are released from the plate using 200 uls of TrypLE Express (Life Technologies) by incubating for 5-10 minutes at 37° C. The TyrpLE-Cell suspension is inactivated by adding 100 uls of Fetal Bovine Serum, transferred to a v-bottom plate, and centrifuged at 250× gravity for 5 minutes. Following centrifugation, the supernatant is aspirated and the cell pellet is resuspended in 100 uL of complete D-PBS, and centrifuged at 250× gravity for 5 minutes. Following centrifugation, the supernatant is aspirated and the cell pellet is resuspended in 100 uls of antibody staining solution (600 uls of anti-LDLr-PE in complete D-PBS) and incubated on ice, protected from light, for 30 minutes. The cells are then pelleted by centrifugation, resuspended in 100 uL of 4′,6-Diamidino-2-phenylindole (DAPI, Cayman Chemical) or 7-aminoactinomycin D (7AAD, Life Technologies) staining solution to measure cell viability
Cells are analyzed for both cell viability marker (dead cells) and LDLR in live cells using a flow cytometer per the manufacturer's operating manual. Cells incubated with small molecule compounds that are inhibitors of PCSK9 will be expected to show increased amounts of LDLR, relative to control (no compound) specimens, and cells incubated with small molecule compounds that are activators of PCSK9 will be expected to show decreased amounts of LDLR relative to control (no compound) specimens.

PCSK9 [2] = target: T1, PCSK9; test: Cellular DiI-LDL uptake analysis (LDL-uptake assay); assay type: cell-based; conditions: for DiI-LDL uptake (% of control) at 20 µM: read-out: LDL-uptake % of control; for remaining activity at 20 µM: percentage uptake of DiI-LDL over the control at 20 uM concentration
Experimental: Cells, such as HepG2, HuH7, FL83B, or a cell line transfected with a short-hairpin PCSK9 knockdown sequence such as HepG2/shPCSK9, HuH7/shPCSK9, or FL83B/shPCSK9 are plated and cultured at 37° C. for 12-24 h. Culture media is removed and replaced with fresh lipoprotein-depleted culture media supplemented with 5 ug/mL of DiI-LDL (Kalen Biomedical) or lipoprotein-depleted culture media supplemented with 5 ug/mL of DiI-LDL plus a predetermined concentration of recombinant PCSK9, for example a 10 nM final concentration of PCSK9. Lipoprotein-depleted culture media can be composed of DMEM (Invitrogen) with 10% lipoprotein-depleted fetal bovine serum (Kalen Biomedical) and supplemented with penicillin-streptomycin (Life Technologies). Cells are dosed with small molecule test compounds at doses ranging from 0 nM to 100 uM.
The lipoprotein-depleted media is removed and cells rinsed three times with phosphate buffered saline. A final volume of phosphate buffered saline is added back to the wells. The DiI fluorescence is measured with a plate reader using an exciting wavelength of 550 nm and the resulting emission at 590 nm is measured. The Hoechst stain fluorescence is measured with a plate reader using an exciting wavelength of 355 nm and the resulting emission at 460 nm is measured.
Cells are analyzed by for both Hoechst stain (DNA content) and DiI-LDL fluorescence.

T1 sequence (Q8NBP7 153-692): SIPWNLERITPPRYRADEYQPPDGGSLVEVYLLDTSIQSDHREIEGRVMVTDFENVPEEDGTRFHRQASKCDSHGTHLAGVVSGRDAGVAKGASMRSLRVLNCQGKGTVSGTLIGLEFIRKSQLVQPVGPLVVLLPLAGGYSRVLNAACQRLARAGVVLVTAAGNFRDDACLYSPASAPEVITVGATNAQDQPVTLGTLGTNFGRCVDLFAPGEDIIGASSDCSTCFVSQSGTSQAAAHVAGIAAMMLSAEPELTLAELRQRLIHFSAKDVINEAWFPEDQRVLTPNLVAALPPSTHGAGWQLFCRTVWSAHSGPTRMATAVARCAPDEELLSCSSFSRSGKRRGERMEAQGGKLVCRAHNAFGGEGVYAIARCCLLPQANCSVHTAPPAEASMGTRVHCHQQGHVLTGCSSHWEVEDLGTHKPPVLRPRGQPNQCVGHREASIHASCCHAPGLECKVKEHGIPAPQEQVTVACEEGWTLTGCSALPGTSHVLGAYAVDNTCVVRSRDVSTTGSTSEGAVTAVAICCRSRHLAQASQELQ

Row | Structure (SMILES) | LDL-R % Recovered (PCSK9 [1]) | DiI-LDL uptake (% of control) at 20 µM (PCSK9 [2]) [%] | remaining activity at 20 µM (PCSK9 [2]) [%]
1 | FC(F)(F)c1ccc(N2CCNCC2)c2ccccc12 [compound 1, 1-(4-(Trifluoromethyl)naphthalen-1-yl)piperazine] | +++ (>30% recovery) | > 150 | –
2 | c1ccc2c(N3CCNCC3)ccc(OC3CCNCC3)c2c1 [compound 4, 1-(4-(Piperidin-4-yloxy)naphthalen-1-yl)piperazine] | + (0-10% recovery) | – | > 150
3 | c1ccc2c(N3CCNCC3)ccc(NC3CCNCC3)c2c1 [compound 5, N-(4-(Piperazin-1-yl)naphthalen-1-yl)piperidin-4-amine] | ++ (10-30% recovery) | – | < 100
4 | O=S(=O)(c1ccc(N2CCNCC2)c2ccccc12)C1CCNCC1 [compound 7, 1-(4-(Piperidin-4-ylsulfonyl)naphthalen-1-yl)piperazine] | + (0-10% recovery) | – | > 150
5 | O=C(c1ccc(N2CCNCC2)c2ccccc12)N1CCNCC1 [compound 8, Piperazin-1-yl(4-(piperazin-1-yl)naphthalen-1-yl)methanone] | + (0-10% recovery) | – | > 150
6 | NC(=O)N1CCN(c2cccc3ccccc23)CC1 [compound 11, 4-(Naphthalen-1-yl)piperazine-1-carboxamide] | + (0-10% recovery) | < 100 | –
7 | O=S(=O)(c1ccc(C2CCNCC2)c2ccccc12)C1CCNCC1 [compound 23, 4-((4-(Piperidin-4-yl)naphthalen-1-yl)sulfonyl)piperidine] | + (0-10% recovery) | – | > 150
8 | Cc1ccc(C2CCNCC2)c2ccccc12 [compound 43, 4-(4-Methylnaphthalen-1-yl)piperidine] | ++ (10-30% recovery) | – | > 150
9 | O=S(=O)(Nc1ccccc1)c1ccc(N2CCNCC2)c2ccccc12 [compound 73, N-phenyl-4-(piperazin-1-yl)naphthalene-1-sulfonamide] | + (0-10% recovery) | – | 100 to 150
10 | c1ccc2c(N3CCNCC3)cccc2c1 [compound 107, 1-(naphthalen-1-yl)piperazine] | ++ (10-30% recovery) | > 150 | –
